# Laboratory results taken from patent US20260027096A1, “PHD INHIBITORS” (Oxford University Innovation Limited, priority 2023, published 2026).
# pIC50: −log10 of the molar value.
# Molecular target: PHD2 (Homo sapiens (Human), UniProt Q9GZT9)
# Experiment: PHD2 RF-MS (RapidFire LC-MS) hydroxylation assay
# Assay type: biochemical
# Description: In brief, cDNA encoding for the catalytic domain of tPHD2 (181-426 residues) was cloned into the pET28a (+)/pET24a (+) vectors (Novagen), to enable production of tPHD2 (residues 181-426) protein with/without an N-terminal His6-tag. The tPHD2 (residues 181-426) encoding construct was transformed into the Escherichia coli BL21 DE3 cell line; protein production was induced with 0.5 mM […] (3-5 hr at 28° C.). […] The protein was exchanged into 50 mM Tris-HCl buffer (pH 7.5) and concentrated to % 40 mg/ml.
# Tris(hydroxymethyl)aminomethane was from Fisher. Ferrous ammonium sulfate (FAS), 2-oxoglutarate (2OG) and L-ascorbic acid were from Sigma Aldrich; solutions of these were prepared freshly each day. All inhibition assays were carried out in 384-well polypropylene plates (Greiner Bio-One). PHD2 assays were performed in assay buffer (50 mM Tris. Cl pH 7.5, 50 mM NaCl). […] The final assay concentration of DMSO was kept constant at 0.5%. PHD2 protein was prepared at a concentration of 300 nM in assay buffer and 25 μl dispensed across each 384-well assay plate. The PHD2 solution was allowed to equilibrate with the inhibitors for 15 minutes at room temperature; the enzyme reaction then initiated by dispense of 25 μl of substrate (20 μM FAS, 200 µM L-ascorbic acid, 10 μM CODD peptide and 20 μM 2OG in the assay buffer. Enzyme reactions were allowed to proceed for 20 minutes at room temperature and the reaction terminated by addition of 10% formic acid (5 μl). Assay plates were then transferred to a RapidFire RF360 sampling robot (Agilent) connected to an Agilent 6530 accurate mass quadrupole-time-of-flight (Q-TOF) mass spectrometer. Assay samples were aspirated under vacuum and loaded onto a C4 solid phase extraction (SPE) cartridge. After loading the C4 SPE was washed with 0.1% formic acid in water to remove non-volatile buffer salts and then peptide was eluted from the SPE with 85% acetonitrile, 15% water containing 0.1% formic acid onto the mass spectrometer. Peptide charge states were monitored in positive mode. Ion chromatogram data were extracted for the +2 charge state and peak area data integrated using RapidFire Integrator software (Agilent). % conversion of the CODD peptide substrate to the +16 hydroxylated peptide was calculated using the equation: % conversion=100×hydroxylated/(hydroxylated+non-hydroxylated peptide). IC50 values were determined from non-linear regression plots using GraphPad prism.
# Example 158—Structure activity relationship (SAR) studies for PHD inhibition SAR studies for PHD inhibition were carried out on the compounds of the invention. Compounds were screened against PHD2 using the RF-MS hydroxylation assay.
# Chain of PHD2 (Q9GZT9 181-426): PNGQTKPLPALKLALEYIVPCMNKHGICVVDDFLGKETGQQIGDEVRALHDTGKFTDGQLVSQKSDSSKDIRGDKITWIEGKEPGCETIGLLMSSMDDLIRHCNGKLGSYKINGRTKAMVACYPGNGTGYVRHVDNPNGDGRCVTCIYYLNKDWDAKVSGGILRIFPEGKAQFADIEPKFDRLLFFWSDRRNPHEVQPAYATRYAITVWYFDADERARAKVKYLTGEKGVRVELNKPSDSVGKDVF
row,SMILES,pIC50
1,"O=C(NCc1ccc(-c2ccccc2)cc1)c1ccc(-n2cccn2)cc1O [Compound 16, N-([1,1′-biphenyl]-4-ylmethyl)-2-hydroxy-4-(1H-pyrazol-1-yl)benzamide]",< 5.00
2,"O=C(NCc1ccc(-c2ccccc2)cc1)c1cnc(-n2cccn2)nc1 [Compound 20, N-([1,1′-Biphenyl]-4-ylmethyl)-2-(1H-pyrazol-1-yl)pyrimidine-5-carboxamide]",< 5.00
3,"O=C(NCc1ccc(-c2ccccc2)cc1)c1ccc(-n2cccn2)nc1 [Compound 22, N-([1,1′-Biphenyl]-4-ylmethyl)-6-(1H-pyrazol-1-yl) nicotinamide]",< 5.00
4,"O=C(O)c1cnn(-c2ccc(C(=O)NCc3ccc(-c4ccccc4)cc3)cn2)c1 [Compound 31, 1-(5-(([1,1′-Biphenyl]-4-ylmethyl)carbamoyl)pyridine-2-yl)-1H-pyrazole-4-carboxylic acid]",6.00 to 9.00
5,"O=C(O)c1cnn(-c2ccc(C(=O)NCc3ccccc3)cn2)c1 [Compound 32, 1-(5-(Benzylcarbamoyl)pyridin-2-yl)-1H-pyrazole-4-carboxylic acid]",5.00 to 6.00
6,"O=C(NCc1ccc(-c2ccccc2)cc1)c1cnc(-n2cccn2)cc1O [Compound 41, N-([1,1′-Biphenyl]-4-ylmethyl)-4-hydroxy-6-(1H-pyrazol-1-yl) nicotinamide]",6.00 to 9.00
7,"O=C(Nc1ccc(-c2ccccc2)cc1)c1cnc(-n2cccn2)cc1O [Compound 42, N-([1,1′-Biphenyl]-4-yl)-4-hydroxy-6-(1H-pyrazol-1-yl) nicotinamide]",6.00 to 9.00
8,"O=C(NCc1cccc(C(F)(F)F)c1)c1cnc(-n2cccn2)cc1O [Compound 43, 4-Hydroxy-6-(1H-pyrazol-1-yl)-N-(3-(trifluoromethyl)benzyl) nicotinamide]",5.00 to 6.00
9,"O=C(NCC1CCCCC1)c1cnc(-n2cccn2)cc1O [Compound 44, N-(Cyclohexylmethyl)-4-hydroxy-6-(1H-pyrazol-1-yl) nicotinamide]",< 5.00
10,"O=C(NCc1ccc(C(F)(F)F)cc1)c1cnc(-n2cccn2)cc1O [Compound 64, 4-Hydroxy-6-(1H-pyrazol-1-yl)-N-(4-(trifluoromethyl)benzyl) nicotinamide]",6.00 to 9.00
11,"O=C(NCc1cccc(-c2ccccc2)c1)c1cnc(-n2cccn2)cc1O [Compound 65, N-([1,1′-Biphenyl]-3-ylmethyl)-4-hydroxy-6-(1H-pyrazol-1-yl) nicotinamide]",6.00 to 9.00
12,"O=C(Nc1cccc(-c2ccccc2)c1)c1cnc(-n2cccn2)cc1O [Compound 66, N-([1,1′-Biphenyl]-3-yl)-4-hydroxy-6-(1H-pyrazol-1-yl) nicotinamide]",6.00 to 9.00
13,"O=C(NCc1ccc(OC(F)(F)F)cc1)c1cnc(-n2cccn2)cc1O [Compound 67, 4-Hydroxy-6-(1H-pyrazol-1-yl)-N-(4-(trifluoromethyloxy)benzyl) nicotinamide]",6.00 to 9.00
14,"O=C(NCc1ccc(-c2ccccc2)nc1)c1cnc(-n2cccn2)cc1O [Compound 69, 4-Hydroxy-N-((6-phenylpyridin-3-yl)methyl)-6-(1H-pyrazol-1-yl) nicotinamide]",6.00 to 9.00
15,"O=C(NCc1ccc(-c2ccccc2)cc1)c1cnc(-n2cccn2)c(O)c1 [Compound 75, N-([1,1′-Biphenyl]-4-ylmethyl)-5-hydroxy-6-(1H-pyrazol-1-yl) nicotinamide]",5.00 to 6.00
16,"O=C(NCc1cccc(-c2ccccc2)c1)c1cnc(-n2cccn2)c(O)c1 [Compound 76, N-([1,1′-Biphenyl]-3-ylmethyl)-5-hydroxy-6-(1H-pyrazol-1-yl) nicotinamide]",5.00 to 6.00
17,"O=C(O)c1cnn(-c2cc(O)c(C(=O)NCc3ccc(-c4ccccc4)cc3)cn2)c1 [Compound 84, 1-(5-(([1,1′-Biphenyl]-4-ylmethyl)carbamoyl)-4-hydroxypyridin-2-yl)-1H-pyrazole-4-carboxylic acid]",6.00 to 9.00
18,"N#Cc1cnn(-c2cc(O)c(C(=O)NCc3ccc(-c4ccccc4)cc3)cn2)c1 [Compound 85, N-([1,1′-Biphenyl]-4-ylmethyl)-6-(4-cyano-1H-pyrazol-1-yl)-4-hydroxynicotinamide]",6.00 to 9.00

row,SMILES,pIC50
1,"O=C(O)c1cnn(-c2ncc(C(=O)NCc3ccc(-c4ccccc4)cc3)cc2O)c1 [Compound 86, 1-(5-(([1,1′-Biphenyl]-4-ylmethyl)carbamoyl)-3-hydroxypyridin-2-yl)-1H-pyrazole-4-carboxylic acid]",6.00 to 9.00
2,"N#Cc1cnn(-c2cc(O)c(C(=O)NCc3ccc(C(F)(F)F)cc3)cn2)c1 [Compound 89, 6-(4-Cyano-1H-pyrazol-1-yl)-4-hydroxy-N-(4-(trifluoromethyl)benzyl) nicotinamide]",6.00 to 9.00
3,"O=C(O)c1cnn(-c2cc(O)c(C(=O)NCc3ccc(C(F)(F)F)cc3)cn2)c1 [Compound 90, 1-(4-Hydroxy-5-((4-(trifluoromethyl)benzyl)carbamoyl)pyridin-2-yl)-1H-pyrazole-4-carboxylic acid]",6.00 to 9.00
4,"O=C(O)c1cnn(-c2cc(O)c(C(=O)NCc3ccc(-c4ccccc4)nc3)cn2)c1 [Compound 91, 1-(4-Hydroxy-5-(((6-phenylpyridin-3-yl)methyl)carbamoyl)pyridin-2-yl)-1H-pyrazole-4-carboxylic acid]",6.00 to 9.00
5,"COc1cc(-n2cc(C(=O)NCc3ccc(-c4ccccc4)cc3)cn2)ncc1C#N [Compound 93, N-([1,1′-Biphenyl]-4-ylmethyl)-1-(5-cyano-4-methoxypyridin-2-yl)-1H-pyrazole-4-carboxamide]",< 5.00
6,"N#Cc1cnc(-n2cc(C(=O)NCc3ccc(-c4ccccc4)cc3)cn2)cc1O [Compound 95, N-([1,1′-Biphenyl]-4-ylmethyl)-1-(5-cyano-4-hydroxypyridin-2-yl)-1H-pyrazole-4-carboxamide]",6.00 to 9.00
7,"O=C(NCc1ccc(-c2ccccc2)cc1)c1cnn(-c2cc(O)c(C(=O)O)cn2)c1 [Compound 96, 6-(4-(([1,1′-Biphenyl]-4-ylmethyl)carbamoyl)-1H-pyrazol-1-yl)-4-hydroxynicotinic acid]",5.00 to 6.00
8,"N#Cc1ccc(-n2cc(C(=O)NCc3ccc(-c4ccccc4)cc3)cn2)nc1 [Compound 97, N-([1,1′-Biphenyl]-4-ylmethyl)-1-(5-cyanopyridin-2-yl)-1H-pyrazole-4-carboxamide]",< 5.00
9,"O=C(NCc1ccc(-c2ccccc2)cc1)c1cnn(-c2cc(O)ccn2)c1 [Compound 99, N-([1,1′-Biphenyl]-4-ylmethyl)-1-(4-hydroxypyridin-2-yl)-1H-pyrazole-4-carboxamide]",5.00 to 6.00
10,"O=C(O)c1ccc(-n2cc(C(=O)NCc3ccc(-c4ccccc4)cc3)cn2)nc1 [Compound 101, 6-(4-(([1,1′-Biphenyl]-4-ylmethyl)carbamoyl)-1H-pyrazol-1-yl) nicotinic acid]",5.00 to 6.00
11,"O=C(O)c1ccnc(-n2cc(C(=O)NCc3ccc(-c4ccccc4)cc3)cn2)c1 [Compound 103, 2-(4-(([1,1′-Biphenyl]-4-ylmethyl)carbamoyl)-1H-pyrazol-1-yl) isonicotinic acid]",< 5.00
12,"O=C(Nc1ccc(-c2ccccc2)cc1)c1cnn(-c2cc(O)ccn2)c1 [Compound 108, N-([1,1′-Biphenyl]-4-yl)-1-(4-hydroxypyridin-2-yl)-1H-pyrazole-4-carboxamide]",< 5.00
13,"O=C(NCc1cccc(-c2ccccc2)c1)c1cnn(-c2cc(O)ccn2)c1 [Compound 109, N-([1,1′-Biphenyl]-3-ylmethyl)-1-(4-hydroxypyridin-2-yl)-1H-pyrazole-4-carboxamide]",5.00 to 6.00
14,"COc1cc(C(=O)NCc2ccc(-c3ccccc3)cc2)cnc1-n1cc(C#N)cn1 [Compound 124, N-([1,1′-biphenyl]-4-ylmethyl)-6-(4-cyano-1H-pyrazol-1-yl)-5-methoxynicotinamide]",6.00 to 9.00
15,"N#Cc1cnn(-c2ncc(C(=O)NCc3ccc(-c4ccccc4)cc3)cc2O)c1 [Compound 125, N-([1,1′-biphenyl]-4-ylmethyl)-6-(4-cyano-1H-pyrazol-1-yl)-5-hydroxynicotinamide]",6.00 to 9.00
16,"O=C(O)c1cnn(-c2ncc(C(=O)NCC3CCC(C(F)(F)F)CC3)cc2O)c1 (centres unmarked) [Compound 129, 1-(3-hydroxy-5-(((4-(trifluoromethyl)cyclohexyl)methyl)carbamoyl)pyridin-2-yl)-1H-pyrazole-4-carboxylic acid]",6.00 to 9.00
17,"N#Cc1cnc(-n2cc(C(=O)NCc3ccc(-c4ccccc4)cc3)cn2)nc1O [Compound 158, N-([1,1′-biphenyl]-4-ylmethyl)-1-(5-cyano-4-hydroxypyrimidin-2-yl)-1H-pyrazole-4-carboxamide]",6.00 to 9.00
